Source: patent US20210024879A1, “BIOSYNTHETIC ACTIVITY OF THE ANAPLASMA PHAGOCYTOPHILUM AND EHRLICHIA CHAFFEENSIS PHAGOSOME IN A HOST CELL-FREE MEDIUM” (Kansas State University Research Foundation, priority 2018, published 2021)

Tests used:
[1] = system: A. phagocytophilum cell-free phagosomes; test: 35S Cys-Met incorporation into cell-free phagosomes; type: cell-based, Anaplasma phagocytophilum; settings: energy source or CHL in axenic medium
Method: (§1) Protein synthesis by ^35S-cysteine-methionine incorporation: Protein synthesis in cell-free purified phagosomes of A. phagocytophilum or E. chaffeensis was measured by incorporation of […] (Perkin Elmer, Waltham, Mass.) as described previously. For normalization of bacterial total protein content, the suspension of the cell-free phagosomes were lysed in 1% (wt/vol) SDS for 5 minutes at 100° C. and the total protein concentration was determined using Protein Assay kit (Bio-Rad, Hercules, Calif.). Subsequently, the suspensions of cell-free phagosomes were equally split into micro-centrifuge tubes at the amount of 30 μg total protein. Partially opened micro-centrifuge tubes containing 500 μL of medium supplemented with 70 μCi of ^35S-Cys-Met were incubated 24 hours at 37° C. in a tri-gas incubator set to maintain 2.5% O2. The cell-free organisms were pelleted at the end of incubation by centrifugation at 15,000×g for 15 minutes at 4° C., washed with K-36 buffer (0.05M K2HPO4, 0.05M KH2PO4, 0.1M KCl, 0.15M NaCl, pH7.0) twice, and disrupted by adding 30 μL of 2×SDS-PAGE sample buffer and by boiling for 5 minutes. Ten μL of lysate each was then transferred to a tube containing 5 mL of biosafe liquid II and used for quantification of ^35S-Cys-Met incorporation using the protocol 4 (^35S) in a liquid scintillation counter (TRI-CARB 2100TR, PerkinElmer, Waltham, Mass.). For visualizing the of radiolabel incorporation into phagosomes proteins, equal volumes of sample lysates were also separated in an SDS/PAGE and the gel was dried and exposed to an X-ray film. Similarly, cell-free growth experiments were carried out in the absence of added ^35S-Cys-Met, resolved on an SDS-PAGE gel and stained using silver nitrate staining kit (Pierce/ThermoFisher Scientific) as per the manufacturer's recommendations.

[2] = system: E. chaffeensis cell-free organisms (DC and RC fractions); test: Protein synthesis by 35S-cysteine-methionine incorporation in cell-free E. chaffeensis in axenic medium; type: cell-based, Ehrlichia chaffeensis; settings: for protein synthesis (35S Cys-Met incorporation) when inhibitor included in the media: axenic media with G6P, 24 h, renografin-purified organisms, FIG. 1; for protein biosynthesis with different energy sources: RC form recovered from DH82 cultures, axenic medium supplemented with the carbon source, FIGS. 5A and 5B
Method: Protein synthesis by ^35S-cysteine-methionine incorporation: Protein synthesis in cell-free purified fractions of E. chaffeensis was measured by incorporation of ^35S-Cys-Met (Perkin Elmer, Waltham, Mass.) as described by Omsland, A., et al., in Developmental stage-specific metabolic and transcriptional activity of Chlamydia trachomatis in an axenic medium. Proc Natl Acad Sci USA. […] For normalization of bacterial total protein content, the suspension of E. chaffeensis cell-free fractions were lysed in 1% (wt/vol) SDS for 5 minutes at 100° C. and the total protein concentration was determined using Protein Assay kit (Bio-Rad, Hercules, Calif.). Subsequently, the suspensions of E. chaffeensis cell-free fractions were equally split into micro-centrifuge tubes at the amount of 30 μg total protein. Partially opened micro-centrifuge tubes containing 500 μL of medium supplemented with 70 μCi of ^35S-Cys-Met were incubated at 37° C. for 24 hours in a tri-gas incubator set to maintain 2.5% O2. E. chaffeensis cell-free organisms were pelleted at the end of incubation by centrifugation at 15,000×g for 15 minutes at 4° C., washed with K-36 buffer (0.05M K2HPO4, 0.05M KH2PO4, 0.1M KCl, 0.15M NaCl, pH7.0) twice, and disrupted by adding 30 μL of 2×SDS-PAGE sample buffer and by boiling for 5 minutes. Ten μL of lysate each was then transferred to a tube containing 5 mL of biosafe liquid II and used for quantification of ^35S-Cys-Met incorporation using the protocol 4 (^35S) in a liquid scintillation counter (TRI-CARB 2100TR, PerkinElmer, Waltham, Mass.). For visualizing the radiolabel incorporation into bacterial proteins, equal volumes of sample lysates were also separated in an SDS/PAGE and the gel was dried and exposed to an X-ray film. Similarly, cell-free growth experiments were carried out in the absence of ^35S-Cys-Met, resolved on an SDS-PAGE gel, and stained using silver nitrate staining kit (Pierce/ThermoFisher Scientific) as per the manufacturer's recommendations.

[3] = system: E. chaffeensis cell-free phagosomes; test: 35S Cys-Met incorporation into cell-free phagosomes; type: cell-based, Ehrlichia chaffeensis; settings: energy source or CHL in axenic medium
Method: as §1

[4] = system: A. phagocytophilum cell-free phagosome; test: Protein biosynthesis by protein fractionation, silver stained SDS polyacrylamide gel; type: cell-based, Anaplasma phagocytophilum; settings: FIGS. 15A and 15B, CHL-containing lanes
Method: Sodium dodecyl sulfate polyacrylamide gel electrophoresis: Five μL of NuPAGE LDS sample buffer and 2 μL of NuPAGE reducing agent (Invitrogen/ThermoFisher Scientific) were added to each of 10 μL of sample solution following cell-free incubation experiments in the axenic medium, boiled for 5 minutes, and then loaded onto a Mini-PROTEAN Precast Bis-Tris 4% to 14% gels (Bio-rad, Hercules, Calif.) and subjected to electrophoresis (100 mA/gel for 60 minutes). The gels were then stained with Silver staining kit (Pierce/ThermoFisher Scientific) according to the manufacturer's recommendations.
Western blot analysis to assess protein synthesis: For detection of the DnaK and P28 proteins of E. chaffeensis or the Dnak of A. phagocytophilum, the above described electrophoresed proteins were transferred onto a nitrocellulose membrane (Thermo Fisher Scientific, Waltham, Mass.) by subjecting to electro-blotting using an electrophoretic transfer unit (Bio-Rad). Protein transfer buffer was prepared as per the manufacturer's instructions and used in the protein transfer protocols. Subsequently, E. chaffeensis DnaK and P28 expressions were assessed using the polyclonal rabbit antisera raised against a recombinant E. chaffeensis proteins for DnaK and P28, respectively. […]

Row | Structure (SMILES) | incorporation of 35S Cys-Met ([1]; FIG. 12A photograph) | incorporation of 35S Cys-Met ([1]; FIG. 12C graph) | incorporation of 35S Cys-Met ([3]; FIG. 12B photograph) | incorporation of 35S Cys-Met ([3]; FIG. 12D graph) | protein biosynthesis with different energy sources [2] | further results
1 | O=C(N[C@H](CO)[C@H](O)c1ccc([N+](=O)[O-])cc1)C(Cl)Cl [CHL, chloramphenicol, reference compound] | no incorporation | no incorporation | no incorporation | no incorporation | – | protein synthesis (35S Cys-Met incorporation) when inhibitor included in the media [2]: abolished; protein synthesis (protein abundance, silver stained gel) [4]: no synthesis
2 | O=C[C@H](O)[C@@H](O)[C@H](O)[C@H](O)COP(=O)(O)O [G6P, glucose 6-phosphate] | showed incorporation | showed incorporation | showed incorporation | showed incorporation | supported the protein biosynthesis similarly | –
3 | O[C@H](CS)[C@H](O)CS (racemic) [DTT, Dithiothreitol] | – | – | – | – | – | impact of exclusion of reducing agent on protein biosynthesis ([2]; axenic medium with G6P, absence of DTT, RC fraction): only a marginal negative effect
4 | O=C(O)CCC(=O)C(=O)O [alpha ketoglutarate] | – | – | – | – | supported the protein biosynthesis similarly | –
5 | Nc1ncnc2c1ncn2[C@@H]1O[C@H](COP(=O)(O)OP(=O)(O)OP(=O)(O)O)[C@@H](O)[C@H]1O [ATP, adenosine triphosphate] | showed incorporation | showed incorporation | showed incorporation | showed incorporation | – | –
6 | CO[C@H]1/C=C/O[C@@]2(C)Oc3c(C)c(O)c4c(O)c(c(/C=N/N5CCN(C)CC5)c(O)c4c3C2=O)NC(=O)/C(C)=C\C=C\[C@H](C)[C@H](O)[C@@H](C)[C@@H](O)[C@@H](C)[C@H](OC(C)=O)[C@@H]1C [rifampin, reference compound] | – | – | – | – | – | protein synthesis (35S Cys-Met incorporation) when inhibitor included in the media [2]: abolished
7 | CC(=O)[O-].[Na+] [sodium acetate] | – | – | – | – | supported the protein biosynthesis similarly | –
